{"source": "patent US20240327421A1", "about": "(Marquette University, priority 2017, published 2024)", "tested_on": "MCF-7 cells", "assay": "MTT assay for proliferation of MCF-7 cells", "format": "cell-based", "conditions": "24 h treatment, 0.001-10 μM", "procedure": "FIGS. 15A-15C. MTT assay for proliferation of MCF-7 cells. Cells were seeded into 96-well plates and incubated for 24 hr before treatment was applied. […] Absorbance values were converted to cell counts using a standard growth curve.\nMTT Assays. Human breast cancer cells (MCF-7) were provided by Dr. Manish Patankar (Department of Obstetrics and Gynecology, University of Wisconsin-Madison). Cells were cultured in Eagle's Minimum Essential Media (EMEM) supplemented with 10% fetal bovine serum and 0.01 mg/mL human recombinant insulin in 5% CO2 at 37° C. A seeding density of 7,000 cells per well was chosen and applied to a 96 well plate. […] Treated cells were incubated for 24 hours after which an MTT (3-(4,5-Dimethylthiazol-2-yl)-2,5-Diphenyltetrazolium Bromide) assay was performed by adding 20% MTT in EMEM solution to cach well and incubating for 4 hours. Formazan crystal metabolites were dissolved using 100% DMSO and absorbance was read at OD 570 nm as well as a reference of 650 nm using a VMax kinetic microplate reader (Molecular Devices, CA) running Softmax Pro version 6.1. Absorbances were converted to cell number using a standard growth curve.", "data": [{"smiles": "OC[C@H]1CC[C@H](c2ccc(O)cc2)CC1", "note": "[Compound 16]", "values": [{"measurement": "proliferation of MCF-7 cells vs untreated control", "result": "No significant changes in the growth of MCF-7 cells"}, {"measurement": "proliferation of MCF-7 cells vs untreated control", "setting": "listed as ISP358-2", "result": "neither ISP358-2 nor DPN showed any significant proliferation"}]}]}
